Key:
[1] = tested on: corn; assay: Test C pre-/postemergence herbicide test; format: in vivo, Zea mays; conditions: preemergence; for Plant response rating (0 = no effect, 100 = complete control), Corn: 125 g ai/ha
In short: (§1)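 Emerged plants at the 1- to 4-leaf stage (2–18 cm), or freshly planted seeds, received test chemicals in a non-phytotoxic solvent mixture with surfactant. Response was visually scored against controls after 12 to 14 days in the greenhouse, on a 0 (no effect) to 100 (complete control) scale.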

[2] = tested on: goosegrass; assay: Test C pre-/postemergence herbicide test; format: in vivo, Eleusine indica; conditions: preemergence; for Plant response rating (0 = no effect, 100 = complete control), Goosegrass: 125 g ai/ha
In short: as §1

[3] = tested on: rice; assay: Test C flooded paddy test; format: in vivo, Oryza sativa; conditions: for Plant response rating, Rice: 500 g ai/ha, visual rating after 12 to 14 days
In short: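 Injury scored visually against controls on a 0 (no effect) to 100 (complete control) scale, 12 to 14 days after treatment in greenhouse. Flooded paddy plants treated at 2-leaf stage; postemergence plants at 1- to 4-leaf stage, 2 to 18 cm tall.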

[4] = tested on: velvetleaf; assay: Test C pre-/postemergence herbicide test; format: in vivo, Abutilon theophrasti; conditions: preemergence; for Plant response rating (0 = no effect, 100 = complete control), Velvetleaf: 125 g ai/ha
In short: as §1

[5] = tested on: johnsongrass; assay: Test C pre-/postemergence herbicide test; format: in vivo, Sorghum halepense; conditions: preemergence; for Plant response rating (0 = no effect, 100 = complete control), Johnsongrass: 125 g ai/ha
In short: as §1

[6] = tested on: cocklebur; assay: Test C pre-/postemergence herbicide test; format: in vivo, Xanthium strumarium; conditions: preemergence; for Plant response rating (0 = no effect, 100 = complete control), Cocklebur: 125 g ai/ha
In short: as §1

[7] = tested on: ducksalad; assay: Test C flooded paddy test; format: in vivo, Heteranthera limosa; conditions: for Plant response rating, Ducksalad: 500 g ai/ha, visual rating after 12 to 14 days
[8] = tested on: bermudagrass; assay: Test C pre-/postemergence herbicide test; format: in vivo, Cynodon dactylon; conditions: preemergence; for Plant response rating (0 = no effect, 100 = complete control), Bermudagrass: 125 g ai/ha
In short: as §1

[9] = tested on: soybean; assay: Test C pre-/postemergence herbicide test; format: in vivo, Glycine max; conditions: preemergence; for Plant response rating (0 = no effect, 100 = complete control), Soybean: 125 g ai/ha
In short: as §1

[10] = tested on: smallflower umbrella sedge; assay: Test C flooded paddy test; format: in vivo, Cyperus difformis; conditions: for Plant response rating, Sedge, Umbrella: 500 g ai/ha, visual rating after 12 to 14 days
[11] = 500 g ai/ha, scale 0 to 100 (0 no effect, 100 complete control), visual, 12 to 14 days
[12] = 125 g ai/ha, scale 0 to 100 (0 no effect, 100 complete control)
[13] = 250 g ai/ha, scale of 0 to 100, 0 is no effect, 100 is complete control
[14] = scale 0 to 100 (0 no effect, 100 complete control)
[15] = 62 g ai/ha, scale 0 to 100, 0 no effect, 100 complete control

SMILES	Plant response rating, Corn ([1]; 62 g ai/ha, scale 0 to 100)	Plant response rating (0 = no effect, 100 = complete control), Corn [1]	Plant response rating, Corn ([1]; 250 g ai/ha, scale 0-100)	Plant response rating, Corn [1, 11]	Plant response rating, Goosegrass ([2]; 62 g ai/ha, scale 0 to 100)	Plant response rating (0 = no effect, 100 = complete control), Goosegrass [2]	Plant response rating, Goosegrass ([2]; 250 g ai/ha, scale 0-100)	Plant response rating, Goosegrass [2, 11]	Rice plant response rating ([3]; 62 g ai/ha, scale 0 to 100)	Rice plant response rating [3, 12]	Rice plant response rating [3, 13]	Plant response rating, Rice [3, 14]	Plant response rating, Velvetleaf ([4]; 62 g ai/ha, scale 0 to 100)	Plant response rating (0 = no effect, 100 = complete control), Velvetleaf [4]	Plant response rating, Velvetleaf [4, 11]	Plant response rating, Johnsongrass ([5]; 62 g ai/ha, scale 0 to 100)	Plant response rating (0 = no effect, 100 = complete control), Johnsongrass [5]	Plant response rating, Johnsongrass ([5]; 250 g ai/ha, scale 0-100)	Plant response rating, Johnsongrass [5, 11]	Plant response rating, Cocklebur ([6]; 62 g ai/ha, scale 0 to 100)	also measured
CCc1nn(C(C)(C)CC)nc1C(=O)Nc1cccc(C(=O)N(C)C)c1 [Compound 372]	60	60	65	65	70	80	90	90	80	85	90	90	50	100	100	80	80	90	90	0	Plant response rating, Velvetleaf ([4]; 250 g ai/ha, scale 0-100): 100; Plant response rating (0 = no effect, 100 = complete control), Cocklebur [6]: 10; Plant response rating, Cocklebur ([6]; 250 g ai/ha, scale 0-100): 60; Plant response rating, Cocklebur [6, 11]: 90; Ducksalad plant response rating ([7]; 62 g ai/ha, scale 0 to 100): 65; Ducksalad plant response rating [7, 12]: 85; Ducksalad plant response rating [7, 13]: 85; Plant response rating, Ducksalad [7, 14]: 85; Plant response rating, Bermudagrass [8, 15]: 75; Plant response rating (0 = no effect, 100 = complete control), Bermudagrass [8]: 98; Plant response rating, Bermudagrass ([8]; 250 g ai/ha, scale 0-100): 98; Plant response rating, Bermudagrass [8, 11]: 100; Plant response rating, Soybean ([9]; 62 g ai/ha, scale 0 to 100): 0; Plant response rating (0 = no effect, 100 = complete control), Soybean [9]: 5; Plant response rating, Soybean ([9]; 250 g ai/ha, scale 0-100): 20; Plant response rating, Soybean [9, 11]: 90; Sedge, Umbrella plant response rating ([10]; 62 g ai/ha, scale 0 to 100): 80; Sedge, Umbrella plant response rating [10, 12]: 85; Sedge, Umbrella plant response rating [10, 13]: 85; Plant response rating, Sedge, Umbrella [10, 14]: 85
CCNC(=O)c1ccc(F)c(N(C(C)=O)C(=O)c2cc(C(C)(C)C)nn2CC)c1 [Compound 399]	60	70	80	95	95	100	100	100	65	65	75	75	95	100	100	95	100	100	100	15	Plant response rating (0 = no effect, 100 = complete control), Cocklebur [6]: 65; Plant response rating, Cocklebur ([6]; 250 g ai/ha, scale 0-100): 70; Plant response rating, Cocklebur [6, 11]: 80; Ducksalad plant response rating ([7]; 62 g ai/ha, scale 0 to 100): 75; Ducksalad plant response rating [7, 12]: 75; Ducksalad plant response rating [7, 13]: 85; Plant response rating, Ducksalad [7, 14]: 85; Plant response rating, Bermudagrass [8, 15]: 100; Plant response rating (0 = no effect, 100 = complete control), Bermudagrass [8]: 100; Plant response rating, Bermudagrass ([8]; 250 g ai/ha, scale 0-100): 100; Plant response rating, Bermudagrass [8, 11]: 100; Plant response rating, Soybean ([9]; 62 g ai/ha, scale 0 to 100): 75; Plant response rating (0 = no effect, 100 = complete control), Soybean [9]: 85; Plant response rating, Soybean [9, 11]: 100; Sedge, Umbrella plant response rating ([10]; 62 g ai/ha, scale 0 to 100): 65; Sedge, Umbrella plant response rating [10, 12]: 70; Sedge, Umbrella plant response rating [10, 13]: 85; Plant response rating, Sedge, Umbrella [10, 14]: 85

From US20060069132A1, “Azolecarboxamide herbicides” (priority 2004, published 2006)
